In article doi:10.1101/2025.10.27.684712v1, “Structure-guided development of a potent human B^0AT1 inhibitor effective in a mouse model of phenylketonuria” (biorxiv, 2025):

Columns and labels:
[1] = molecular target: T1, hB^0AT1 (human SLC6A19) co-expressed with human Collectrin (Homo sapiens, UniProt Q695T7); experiment: inhibition of d5-phenylalanine uptake, LC-MS/MS; type: cell-based
T1 construct: hSLC6A19-T2A-hCollectrin synthetic construct, wild type, doxycycline-inducible in JTREx-CHO cells; with Collectrin
T1 sequence (Q695T7 1-634): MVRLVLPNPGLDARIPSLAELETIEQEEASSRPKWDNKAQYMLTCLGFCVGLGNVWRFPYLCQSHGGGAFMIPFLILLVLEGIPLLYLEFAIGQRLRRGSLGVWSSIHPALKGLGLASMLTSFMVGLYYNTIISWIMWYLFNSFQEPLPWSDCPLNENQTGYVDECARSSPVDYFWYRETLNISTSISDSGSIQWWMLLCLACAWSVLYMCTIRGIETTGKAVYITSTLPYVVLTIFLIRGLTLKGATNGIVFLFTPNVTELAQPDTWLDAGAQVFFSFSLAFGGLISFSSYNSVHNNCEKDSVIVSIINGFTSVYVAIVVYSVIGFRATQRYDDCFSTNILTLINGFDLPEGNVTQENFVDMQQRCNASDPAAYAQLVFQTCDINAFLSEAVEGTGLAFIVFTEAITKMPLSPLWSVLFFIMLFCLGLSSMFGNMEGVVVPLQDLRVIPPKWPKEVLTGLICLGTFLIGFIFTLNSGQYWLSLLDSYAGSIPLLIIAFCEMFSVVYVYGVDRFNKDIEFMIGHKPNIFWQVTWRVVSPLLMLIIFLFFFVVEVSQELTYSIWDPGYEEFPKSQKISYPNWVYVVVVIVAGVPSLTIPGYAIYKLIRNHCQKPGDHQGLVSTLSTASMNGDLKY
T1 sequence (Q9HBJ8 15-222 partner): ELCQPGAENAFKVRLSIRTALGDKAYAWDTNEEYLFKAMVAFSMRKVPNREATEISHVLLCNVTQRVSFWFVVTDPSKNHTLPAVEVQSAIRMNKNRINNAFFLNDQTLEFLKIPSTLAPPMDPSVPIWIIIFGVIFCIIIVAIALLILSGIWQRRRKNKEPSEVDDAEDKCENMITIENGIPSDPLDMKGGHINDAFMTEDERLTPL

hB^0AT1-ACE2 complex = molecular target: T2, hB^0AT1-ACE2 complex (Homo sapiens, UniProt Q695T7); experiment: binding to crude membranes, filtration and LC-MS/MS
T2 construct: gene SLC6A19; wild type; N-terminal FLAG on B0AT1, Strep-tag after ACE2 signal peptide; FreeStyle 293-F; with Angiotensin-converting enzyme 2
T2 sequence (Q9BYF1 18-805 partner, one chain of several): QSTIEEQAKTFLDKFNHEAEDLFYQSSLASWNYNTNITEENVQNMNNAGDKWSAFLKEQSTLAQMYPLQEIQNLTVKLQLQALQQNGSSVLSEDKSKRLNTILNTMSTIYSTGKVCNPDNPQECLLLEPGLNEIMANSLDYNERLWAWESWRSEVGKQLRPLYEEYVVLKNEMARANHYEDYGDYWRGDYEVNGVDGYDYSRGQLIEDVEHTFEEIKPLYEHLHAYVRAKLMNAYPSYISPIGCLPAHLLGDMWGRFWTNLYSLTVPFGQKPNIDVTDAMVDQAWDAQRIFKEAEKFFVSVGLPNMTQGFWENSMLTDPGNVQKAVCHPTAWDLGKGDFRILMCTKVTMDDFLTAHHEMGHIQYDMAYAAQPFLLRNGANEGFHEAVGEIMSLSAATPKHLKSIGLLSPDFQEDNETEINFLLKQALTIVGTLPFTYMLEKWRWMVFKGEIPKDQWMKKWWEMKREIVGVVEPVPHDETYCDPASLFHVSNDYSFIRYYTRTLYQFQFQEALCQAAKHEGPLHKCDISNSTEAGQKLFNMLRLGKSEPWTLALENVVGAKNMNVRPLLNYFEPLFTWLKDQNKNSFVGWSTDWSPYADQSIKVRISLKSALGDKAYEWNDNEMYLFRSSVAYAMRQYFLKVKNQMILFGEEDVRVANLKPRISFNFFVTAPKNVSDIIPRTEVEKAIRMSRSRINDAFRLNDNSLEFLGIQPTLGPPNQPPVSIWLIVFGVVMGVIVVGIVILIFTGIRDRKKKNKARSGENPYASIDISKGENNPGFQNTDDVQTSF

[2] = molecular target: T3, mB^0AT1 (mouse SLC6A19) co-expressed with mouse Collectrin (Mus musculus, UniProt Q9D687); experiment: inhibition of d5-phenylalanine uptake, LC-MS/MS; type: cell-based
T3 construct: mSLC6A19-T2A-mCollectrin synthetic construct, doxycycline-inducible in JTREx-CHO cells; with Collectrin
T3 sequence (Q9D687 1-634): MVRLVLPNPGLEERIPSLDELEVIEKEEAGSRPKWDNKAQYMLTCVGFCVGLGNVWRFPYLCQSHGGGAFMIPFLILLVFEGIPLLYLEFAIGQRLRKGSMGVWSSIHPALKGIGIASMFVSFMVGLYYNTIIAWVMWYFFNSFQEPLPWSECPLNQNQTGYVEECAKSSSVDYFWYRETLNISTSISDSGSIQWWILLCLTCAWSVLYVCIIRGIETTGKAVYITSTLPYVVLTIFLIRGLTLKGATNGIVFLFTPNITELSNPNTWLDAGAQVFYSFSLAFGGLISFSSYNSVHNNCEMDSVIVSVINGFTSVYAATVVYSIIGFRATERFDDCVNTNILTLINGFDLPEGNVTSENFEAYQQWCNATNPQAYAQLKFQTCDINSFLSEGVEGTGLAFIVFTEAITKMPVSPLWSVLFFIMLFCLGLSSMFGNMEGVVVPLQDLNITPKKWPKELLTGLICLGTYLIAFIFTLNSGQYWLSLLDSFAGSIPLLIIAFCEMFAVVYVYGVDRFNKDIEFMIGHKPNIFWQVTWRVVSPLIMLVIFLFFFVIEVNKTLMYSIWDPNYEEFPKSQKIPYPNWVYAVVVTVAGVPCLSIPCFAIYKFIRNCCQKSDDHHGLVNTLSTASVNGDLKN
T3 sequence (Q9ESG4 15-222 partner): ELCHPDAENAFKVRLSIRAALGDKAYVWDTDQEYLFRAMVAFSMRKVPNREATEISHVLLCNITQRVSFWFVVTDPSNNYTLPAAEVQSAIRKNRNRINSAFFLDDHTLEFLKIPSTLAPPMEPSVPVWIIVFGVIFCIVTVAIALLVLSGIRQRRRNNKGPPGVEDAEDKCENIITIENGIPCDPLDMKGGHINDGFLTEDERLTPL

[3] = molecular target: T1, hB^0AT1 (human SLC6A19) co-expressed with human Collectrin; experiment: d5-phenylalanine uptake kinetics, LC-MS/MS; type: cell-based; conditions: labelled compound; 100 mM NaCl, pH 7.4, 37 °C, no inhibitor

IC50 [1]	Kd (hB^0AT1-ACE2 complex)	IC50 [2]	Km [3]	Compound
970 nM	472 nM	> 10000 nM		CCNC(=O)/C=C/c1cccc(Br)c1 [compound 1, Cinromide]
513 nM	47 nM	295 nM		O=C(/C=C/c1ccc(C(F)(F)F)cc1)NCC(=O)N1CCNC(=O)C1 [compound 3]
			866 ± 144 µM	d5-phenylalanine
5500 nM	140 nM	1980 nM		CN(C)C(=O)CNC(=O)/C=C/c1ccc(C(F)(F)F)cc1 [compound 2]
